# In PubChem BioAssay AID1963983 (Molecular Pharmacology Branch, DTP, NCI, 2024):
# “And” between values parts separate entries of the source, which are not always exact repeats. Equal values may be shown once.
# Tested on: 186277-243-T-J2-PDC multi-cell spheroid viability
# Experiment: Anticancer human tumor 186277-243-T-J2-PDC patient-derived colon adenocarcinoma cell line growth inhibition [PI3K]
# Conditions: for viability, T/C: stronger effect = lower value
# In short: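 We assembled tumor spheroids that included a stromal compartment of HUVEC and MSCs, then exposed them to targeted agents alone and together with PI3K pathway inhibitors. Concentration series descended by half-log from clinically achievable Cmax levels. Viability served as the endpoint.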
# [1] = curve of first compound, second compound 0.0316 µM
# [2] = curve of first compound, second compound 0.1 µM
# [3] = curve of first compound, second compound 0.316 µM
# [4] = curve of first compound, second compound 1 µM
# [5] = curve of first compound, second compound 3.16 µM
# [6] = curve of first compound, second compound 10 µM
# [7] = second compound 0.0316 µM, first compound 0.0316 µM
# [8] = second compound 0.0316 µM, first compound 0.1 µM
# [9] = second compound 0.0316 µM, first compound 0.316 µM
# [10] = second compound 0.0316 µM, first compound 1 µM
# [11] = second compound 0.0316 µM, first compound 3.16 µM
# [12] = second compound 0.0316 µM, first compound 10 µM
# [13] = second compound 0.1 µM, first compound 0.0316 µM
# [14] = second compound 0.1 µM, first compound 0.1 µM
# [15] = second compound 0.1 µM, first compound 0.316 µM
# [16] = second compound 0.1 µM, first compound 1 µM
# [17] = second compound 0.1 µM, first compound 3.16 µM
# [18] = second compound 0.1 µM, first compound 10 µM
# [19] = second compound 0.316 µM, first compound 0.0316 µM
# [20] = second compound 0.316 µM, first compound 0.1 µM
# [21] = second compound 0.316 µM, first compound 0.316 µM
# [22] = second compound 0.316 µM, first compound 1 µM
# [23] = second compound 0.316 µM, first compound 3.16 µM
# [24] = second compound 0.316 µM, first compound 10 µM
# [25] = second compound 1 µM, first compound 0.0316 µM
# [26] = second compound 1 µM, first compound 0.1 µM
# [27] = second compound 1 µM, first compound 0.316 µM
# [28] = second compound 1 µM, first compound 1 µM
# [29] = second compound 1 µM, first compound 3.16 µM
# [30] = second compound 1 µM, first compound 10 µM
# [31] = second compound 3.16 µM, first compound 0.0316 µM
# [32] = second compound 3.16 µM, first compound 0.1 µM
# [33] = second compound 3.16 µM, first compound 0.316 µM
# [34] = second compound 3.16 µM, first compound 1 µM
# [35] = second compound 3.16 µM, first compound 3.16 µM
# [36] = second compound 3.16 µM, first compound 10 µM
# [37] = second compound 10 µM, first compound 0.0316 µM
# [38] = second compound 10 µM, first compound 0.1 µM
# [39] = second compound 10 µM, first compound 0.316 µM
# [40] = second compound 10 µM, first compound 1 µM
# [41] = second compound 10 µM, first compound 3.16 µM
# [42] = second compound 10 µM, first compound 10 µM
# 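Note: spheroids exposed to compounds for seven days before viability reading.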
# 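Throughout, for viability, T/C: 100% = DMSO vehicle control viability.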
structure (smiles),measurement,setting,value
CC1(C)CCC(CN2CCN(c3ccc(C(=O)NS(=O)(=O)c4ccc(NCC5CCOCC5)c([N+](=O)[O-])c4)c(Oc4cnc5[nH]ccc5c4)c3)CC2)=C(c2ccc(Cl)cc2)C1 + CC(Nc1ncnc2nc[nH]c12)c1cc2cccc(Cl)c2c(=O)n1-c1ccccc1,IC50,[1],4.86 µM
same,IC50,[2],4.45 µM
same,IC50,[3],5.63 µM
same,IC50,[4],4.84 µM
same,IC50,[5],5.17 µM
same,IC50,[6],4.67 µM
same,"viability, T/C",[7],96.6%
same,"viability, T/C",[8],96.2%
same,"viability, T/C",[9],95%
same,"viability, T/C",[10],105%
same,"viability, T/C",[11],77.3%
same,"viability, T/C",[12],4.52%
same,"viability, T/C",[13],99.5%
same,"viability, T/C",[14],116%
same,"viability, T/C",[15],96.7%
same,"viability, T/C",[16],92.2%
same,"viability, T/C",[17],70.5%
same,"viability, T/C",[18],4.02%
same,"viability, T/C",[19],97%
same,"viability, T/C",[20],108%
same,"viability, T/C",[21],91.8%
same,"viability, T/C",[22],98.6%
same,"viability, T/C",[23],92.1%
same,"viability, T/C",[24],8%
same,"viability, T/C",[25],105%
same,"viability, T/C",[26],116%
same,"viability, T/C",[27],102%
same,"viability, T/C",[28],112%
same,"viability, T/C",[29],77%
same,"viability, T/C",[30],4.04%
same,"viability, T/C",[31],112%
same,"viability, T/C",[32],115%
same,"viability, T/C",[33],106%
same,"viability, T/C",[34],103%
same,"viability, T/C",[35],85.9%
same,"viability, T/C",[36],3.14%
same,"viability, T/C",[37],97%
same,"viability, T/C",[38],96.1%
same,"viability, T/C",[39],97.2%
same,"viability, T/C",[40],95.5%
same,"viability, T/C",[41],74.7%
same,"viability, T/C",[42],2.09%
Cn1nccc1Nc1nccc(-c2ccn(C(CO)c3ccc(Cl)c(F)c3)c(=O)c2)n1 (stereo unspecified),"viability, T/C",compound 0.0316 µM,96.2% [middle of 4 runs]
same,"viability, T/C",compound 0.1 µM,102% and 103% (2×) and 105%
same,"viability, T/C",compound 0.316 µM,99.2% [middle of 4 runs]
same,"viability, T/C",compound 1 µM,81% [middle of 4 runs]
same,"viability, T/C",compound 3.16 µM,37.2% [middle of 4 runs]
same,"viability, T/C",compound 10 µM,26.7% [middle of 4 runs]
same,IC50,curve of compound,2.35 µM [middle of 4 runs]
CC1(C)CCC(CN2CCN(c3ccc(C(=O)NS(=O)(=O)c4ccc(NCC5CCOCC5)c([N+](=O)[O-])c4)c(Oc4cnc5[nH]ccc5c4)c3)CC2)=C(c2ccc(Cl)cc2)C1,"viability, T/C",compound 0.0316 µM,98% [middle of 4 runs]
same,"viability, T/C",compound 0.1 µM,105% [middle of 4 runs]
same,"viability, T/C",compound 0.316 µM,100% [middle of 4 runs]
same,"viability, T/C",compound 1 µM,97.9% [middle of 4 runs]
CNC(=O)c1ccc(N2C(=S)N(c3ccc(C#N)c(C(F)(F)F)c3)C(=O)C2(C)C)cc1F,"viability, T/C",compound 0.0316 µM,100% [middle of 4 runs]
same,"viability, T/C",compound 0.1 µM,93.1% [middle of 4 runs]
same,"viability, T/C",compound 0.316 µM,100% [middle of 4 runs]
same,"viability, T/C",compound 1 µM,93% [middle of 4 runs]
same,"viability, T/C",compound 3.16 µM,101% and 104% (2×) and 94.4%
same,"viability, T/C",compound 10 µM,104% [middle of 4 runs]
same,IC50,curve of compound,> 10 µM
C=CC(=O)N1CCN(c2nc(=O)n(-c3c(C)ccnc3C(C)C)c3nc(-c4c(O)cccc4F)c(F)cc23)C(C)C1 (stereo unspecified) + Cc1nc(NC(=O)N2CCCC2C(N)=O)sc1-c1ccnc(C(C)(C)C(F)(F)F)c1,IC50,[1],> 10 µM
same,IC50,[2],> 10 µM
same,IC50,[3],> 10 µM
same,IC50,[4],> 10 µM
same,IC50,[5],0.605 µM
same,IC50,[6],< 0.0316 µM
same,"viability, T/C",[7],83.7%
same,"viability, T/C",[8],108%
same,"viability, T/C",[9],105%
same,"viability, T/C",[10],88.1%
same,"viability, T/C",[11],100%
same,"viability, T/C",[12],94.8%
same,"viability, T/C",[13],102%
same,"viability, T/C",[14],99.2%
same,"viability, T/C",[15],106%
same,"viability, T/C",[16],95.6%
same,"viability, T/C",[17],92%
same,"viability, T/C",[18],103%
same,"viability, T/C",[19],108%
same,"viability, T/C",[20],107%
same,"viability, T/C",[21],96.6%
same,"viability, T/C",[22],104%
same,"viability, T/C",[23],86.9%
same,"viability, T/C",[24],85%
same,"viability, T/C",[25],93.4%
same,"viability, T/C",[26],102%
same,"viability, T/C",[27],87.6%
same,"viability, T/C",[28],94.5%
same,"viability, T/C",[29],80%
same,"viability, T/C",[30],57.5%
same,"viability, T/C",[31],61.6%
same,"viability, T/C",[32],51.9%
same,"viability, T/C",[33],46.5%
same,"viability, T/C",[34],52.7%
same,"viability, T/C",[35],41.1%
same,"viability, T/C",[36],26.3%
same,"viability, T/C",[37],11.1%
same,"viability, T/C",[38],12.8%
same,"viability, T/C",[39],14.5%
same,"viability, T/C",[40],9.26%
same,"viability, T/C",[41],10.8%
same,"viability, T/C",[42],13.2%
C=CC(=O)N1CCN(c2nc(=O)n(-c3c(C)ccnc3C(C)C)c3nc(-c4c(O)cccc4F)c(F)cc23)C(C)C1 (stereo unspecified),"viability, T/C",compound 0.0316 µM,98.1% [middle of 4 runs]
same,"viability, T/C",compound 0.1 µM,92.8% [middle of 4 runs]
same,"viability, T/C",compound 0.316 µM,98% [middle of 4 runs]
same,"viability, T/C",compound 1 µM,102% [middle of 4 runs]
same,"viability, T/C",compound 3.16 µM,108% [middle of 4 runs]
same,"viability, T/C",compound 10 µM,90.6% [middle of 4 runs]
same,IC50,curve of compound,> 10 µM
Cn1ncc(Cl)c1-c1cc(C(=O)NC(CN)Cc2cccc(F)c2)sc1Cl (stereo unspecified),"viability, T/C",compound 0.0316 µM,89.1% [middle of 4 runs]
same,"viability, T/C",compound 0.1 µM,85% [middle of 4 runs]
same,"viability, T/C",compound 0.316 µM,60.5% [middle of 4 runs]
same,"viability, T/C",compound 1 µM,45.4% [middle of 4 runs]
same,"viability, T/C",compound 3.16 µM,46.1% [middle of 4 runs]
same,"viability, T/C",compound 10 µM,19.8% [middle of 4 runs]
same,IC50,curve of compound,1.17 µM [middle of 4 runs]
